Results: patent US6958318B2, “Recombinant bacterial cells for delivery of PNP to tumor cells” (The UAB Research Foundation, priority 1993, dated 2005)
Where “and” joins values, the source holds several entries; their conditions need not be identical. Equal entries are not always repeated. Entries after “also recorded” stand apart in the source; their conditions may differ. Marks after values point to notes of the source that are not given here.

How the values were obtained:
[1] = tested on: T-84 colon carcinoma cells; assay: Toxicity of MeP and MeP-dR in untransfected T-84 cells; format: cell-based, human; details: 5 days
Protocol: T-84 colon carcinoma cells were grown in Dulbecco's modified Eagle medium containing F12 nutrient medium (DMEM/F12) (GIBCO/BRL, Gaithersburg, Md.) in 6 well trays to a density of approximately […] (−20% confluency).
Untransfected T-84 colon carcinoma cells were treated with increasing concentrations of either MeP-dR or MeP. After 5 days the cells were removed from each well and the number of dye excluding cells were determined with the aid of a hemacytometer. Cells were studied both at passage 48 (p. 48) and passage 61 (p. 61). MeP was obtained from Sigma Chemical Company (St. Louis, Mo.). MeP-dR was synthesized by standard methods as described (J. A. Montgomery and K. Howson, J. Med. Chem., 11:48-52 (1968)). The nucleoside and base were dissolved in serum free DMEM/F12 at a concentration of 1 mg/ml and added directly to 1 ml DMEM/F12 with 10% fetal bovine serum at the concentrations described below in order to cover 1-2×10^5 cells/well.
Initial cytopathic effects due to MeP were observed within 24 hours (for example, rounding of cells, with some cells detaching from plate). Viable cells were counted 5 days following addition of drug. […] Trypan blue exclusion was used to confirm viability in cells retaining recognizable structure at all concentrations studied. […] If the toxicity of MeP-dR is due to very low levels of liberation of MeP by human PNP, then combination with selective inhibitors of human PNP could prevent this toxicity.

E. coli PNP [2] = biological target: T1, E. coli PNP (Escherichia coli, UniProt P0ABP8)
T1 sequence (P0ABP8 2-239): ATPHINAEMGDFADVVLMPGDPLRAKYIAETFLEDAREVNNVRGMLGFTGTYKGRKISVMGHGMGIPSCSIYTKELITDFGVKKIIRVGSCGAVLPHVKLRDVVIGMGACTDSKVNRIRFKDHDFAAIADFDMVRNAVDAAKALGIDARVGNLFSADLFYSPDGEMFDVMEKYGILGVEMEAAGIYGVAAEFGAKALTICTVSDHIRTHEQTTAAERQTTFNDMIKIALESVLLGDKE

PNP transduced tumors = format: in vivo; details: 67 mg/kg ip, qd×3 d
16/C breast cancer cells = assay: Bystander killing, mixed wild type and PNP-transduced 16/C cells; format: cell-based, murine; details: 20 μg/ml
Mel-1 melanoma cells = assay: Killing of Mel-1 cells transfected with Tyr-PNP or SV-PNP; format: cell-based, human; details: 30 μg/ml, day 6
Description: To eliminate possible toxicity associated with the non-hydrolyzable cationic lipid component of the LipofectinJ, an alternative liposome transfection vehicle was used in the killing experiments. A liposome vehicle consisting of a 1:1 (weight/weight) mixture of the cationic lipid DOTAP (1,2-dioleoyloxy-3-(trimethylammonium)-propane) and the neutral lipid DOPE (dioleoyl-phosphatidylethanolamine) (Avanti Polar Lipids) display transfection properties similar to LipofectinJ, but with less toxicity (data not shown). DOTAP/DOPE liposomes were prepared by mixing 0.5 mg of DOTAP and 0.5 mg of DOPE and evaporating the chloroform solvent. Following the addition of 500 μl of cyclohexane, the mixture was placed on dry ice and lyophilized. One ml of sterile water was added to the powdered lipids and the solution was vortexed every 5 minutes for 30 minutes. T-84 or Mel-1 cells were seeded at 30% confluency in 24-well plates and allowed to grow overnight. […]
In cells that received the PNP or control plasmids, the media was changed two days after transfection and MeP-dR (6-methylpurine-deoxyriboside) added to the appropriate wells to a final concentration of 30 μg/ml. […] Two days later (day 6), the cells were washed once with PBS, resuspended, and counted in a 20% solution of trypan blue reagent (Trypan Blue Stain 0.4%, Gibco-BRL, Gaithersburg, Md.) using a hemacytometer. […]

[3] = literature; cited from earlier work
B16 melanoma cells = assay: Bystander killing, mixed wild type and PNP-transduced B16 cells; format: cell-based, murine; details: 20 μg/ml
E. coli PNP [4] = biological target: T1, E. coli PNP; format: cell-based; details: 160 μM, 5 day period, E. coli PNP transfected cells
16/C-PNP tumors = assay: E. coli PNP-transduced 16/C tumors in B6C3F1 mice; format: in vivo
Protocol: Transduced 16/C cells were implanted in mice by subcutaneous injection of approximately 10^6 cells harvested from the cultures of stably transduced 16/C cells described above. The mice were examined visibly for tumor growth and those with developing tumors were maintained. To prepare mice for use in the in vivo experiments, the tumors were removed from mice with significant tumor growth and cut into 30-60 mg pieces. One 30-60 mg piece of the tumor was subcutaneously implanted into the subaxillary region of each female B6C3F1 mouse. The tumors were allowed to develop and mice with tumors of 100 mm^3 were used.
Six mice per group with established PNP-transduced 16/C tumors were treated with aqueous control solution, MeP-dR or F-ara AMP, as above. […] (Table III, 16/C-PNP treatment.)

[5] = IP for three days, MeP-dR 100, F-araAMP 500 mg/kg/day

## Cc1ncnc2c1ncn2[C@H]1C[C@H](O)[C@@H](CO)O1 [MeP-dR, 9-(β-D-2-deoxyerythropentofuranosyl)-6-methylpurine]
[1]; 160 μM
  Toxicity to cells that were not transfected: minimally toxic
[1]; 200 and 400 μM
  Cells killed: less than half of the cells were killed
[1]; lower concentrations
  Cell death: did not cause any appreciable cell death
E. coli PNP [2]
  Km: 68 µM and 107 µM
PNP transduced tumors
  Effect on very large pre-existing PNP transduced tumors (approximately 1 gram): impressive regression
16/C breast cancer cells
  Toxicity to untransduced 16/C cells: not toxic
16/C breast cancer cells; mixed culture
  Cell proliferation when as few as 2% of cells express E. coli PNP: completely eliminated cell proliferation; also recorded: Complete abrogation of cellular proliferation
16/C breast cancer cells; LDH release assay
  Share of cells expressing PNP required for total population cell killing: 1%
Mel-1 melanoma cells
  Killing of Mel-1 cells transfected with SV-PNP: susceptible to killing
  Killing of Mel-1 cells transfected with Tyr-PNP: susceptible to killing
[3]
  Toxicity of prodrug relative to its purine analog: much less toxic than their respective purine analogs
B16 melanoma cells
  Toxicity to untransduced B16 cells: not toxic
B16 melanoma cells; mixed culture
  Cell proliferation when as few as 2% of cells express E. coli PNP: completely eliminated cell proliferation; also recorded: Complete abrogation of cellular proliferation
B16 melanoma cells; LDH release assay
  Share of cells expressing PNP required for total population cell killing: 10%
E. coli PNP [4]
  MeP-dR converted to MeP in culture medium: More than 75%
16/C-PNP tumors; [5]
  Complete Regressions/Total: three of six and 3/6
  Day delay (Treated-control): 5.4 days
  Nonspecific Deaths/Total: 2/6****
16/C-PNP tumors; p<0.01
  Delay in time for three tumor doublings, in words: statistically significant delay
